In one experiment the test system is MCF-7 cells. The experiment is described as follows: Breast Cancer Cell Viability Assays (MCF-7, CellTiter-Glo). Type of experiment: cell-based. The settings on record: 5 days' compound exposure; for IC50: Homo sapiens, MCF7, 120 h. An outline of the steps:
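Percent viability, background-subtracted against untreated wells, was taken from CellTiter-Glo luminescence after 5 days' exposure of MCF-7 cells. Compounds were tested at eleven semilog concentrations, final 0.3–0.000003 μM, in RPMI containing 10% FBS.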
In general terms: Cellular ATP, detected with luciferase, serves as a proxy for viable cell number.

In another experiment the target is T1, ER-α in MCF-7 cells (Homo sapiens, UniProt P03372).
T1 construct: endogenous in cells; host or cells: MCF-7
T1 sequence (P03372 1-595): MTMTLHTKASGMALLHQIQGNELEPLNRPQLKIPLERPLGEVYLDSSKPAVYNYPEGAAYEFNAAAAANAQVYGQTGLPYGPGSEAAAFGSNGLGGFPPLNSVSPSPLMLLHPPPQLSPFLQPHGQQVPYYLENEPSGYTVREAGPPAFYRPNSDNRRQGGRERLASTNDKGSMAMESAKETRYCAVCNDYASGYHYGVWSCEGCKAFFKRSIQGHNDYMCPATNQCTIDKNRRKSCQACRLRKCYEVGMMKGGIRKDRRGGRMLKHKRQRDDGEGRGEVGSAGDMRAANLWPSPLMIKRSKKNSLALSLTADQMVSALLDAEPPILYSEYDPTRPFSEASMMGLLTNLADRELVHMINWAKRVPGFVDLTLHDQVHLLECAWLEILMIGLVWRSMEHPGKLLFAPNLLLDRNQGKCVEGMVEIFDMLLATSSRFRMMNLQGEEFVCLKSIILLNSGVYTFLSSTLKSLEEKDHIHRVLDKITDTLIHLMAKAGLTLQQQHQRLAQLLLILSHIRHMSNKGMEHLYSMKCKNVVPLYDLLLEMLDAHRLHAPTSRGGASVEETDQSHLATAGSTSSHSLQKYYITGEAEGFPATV
The experiment is described as follows: Breast Cancer Cell ER-α In Cell Western Assay (SP1). The settings on record: 4 or 24 hr post compound addition; for Emax: MCF7, SP1 antibody, read-out: ER-α In Cell Western Assay (SP1) Max Response; for DC50: SP1 antibody, read-out: ER-α In Cell Western Assay (SP1) IC50. Type of experiment: cell-based. An outline of the steps: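 ER-α levels quantified by in-cell western: SP1 signal normalised to DRAQ5 DNA stain, relative to untreated cells (% ER). Compounds at 0.3–0.000003 μM final, 11-point semilog series, 4 or 24 h exposure of MCF-7 cells grown in charcoal-stripped serum.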

As for `Fc1n[nH]c2ccc(/C(=C(/c3ccccc3)C3CCC3)c3ccc(/C=C/c4cn[nH]c4)cc3)cc12` [Example 206, 5-((E)-1-(4-((E)-2-(1H-Pyrazol-4-yl)vinyl)phenyl)-2-cyclobutyl-2-phenylvinyl)-3-fluoro-1H-indazole], in the experiment on MCF-7 cells, the “MCF7 Viability Assay Max Response” value is recorded as “+ (+ = a single % value < 40%)” and the IC50 (in general, the concentration needed to halve the response being measured) was at most 100 nM. Besides, on ER-α in MCF-7 cells, the Emax is at least 40% and the DC50 was at most 100 nM.
As to `Fc1n[nH]c2ccc(/C(=C(/c3ccccc3)C3CCC3)c3ccc(/C=C/c4ccn[nH]4)cc3)cc12` [Example 207, 5-((E)-1-(4-((E)-2-(1H-Pyrazol-5-yl)vinyl)phenyl)-2-cyclobutyl-2-phenylvinyl)-3-fluoro-1H-indazole], in the experiment with MCF-7 cells, the “MCF7 Viability Assay Max Response” value is “+ (+ = a single % value < 40%)” and the IC50 was above 100 nM. For the same compound, on ER-α in MCF-7 cells, the Emax is at least 40% and the DC50 was at most 100 nM.
In the same order, the values of `Fc1n[nH]c2ccc(/C(=C(/c3ccccc3)C3CCC3)c3ccc(/C=C/c4nnco4)cc3)cc12` [Example 208, 2-((E)-4-((E)-2-Cyclobutyl-1-(3-fluoro-1H-indazol-5-yl)-2-phenylvinyl)styryl)-1,3,4-oxadiazole] are “++ (++ = a single % value ≧ 40%)”, at most 100 nM, at least 40% and at most 100 nM.
`Fc1n[nH]c2ccc(/C(=C(/c3ccccc3)C3CCC3)c3ccc(/C=C/c4ncon4)cc3)cc12` [Example 209, 3-((E)-4-((E)-2-Cyclobutyl-1-(3-fluoro-1H-indazol-5-yl)-2-phenylvinyl)styryl)-1,2,4-oxadiazole]: in the experiment on MCF-7 cells, the “MCF7 Viability Assay Max Response” value is “+ (+ = a single % value < 40%)” and the IC50 is at most 100 nM. Also, at ER-α in MCF-7 cells, the Emax is at least 40% and the DC50 was at most 100 nM.
In the case of `N=C(N)/C=C/c1ccc(/C(=C(\c2ccccc2)C2CCC2)c2ccc3[nH]nc(F)c3c2)cc1` [Example 210], in the experiment on MCF-7 cells, the “MCF7 Viability Assay Max Response” value is on record as “++ (++ = a single % value ≧ 40%)” and the IC50 was at most 100 nM. In addition, on ER-α in MCF-7 cells, the Emax was at least 40% and the DC50 was at most 100 nM.
For the compound `CC/C(=C(/c1ccc(/C=C/C(=O)O)cc1)c1ccc2[nH]ncc2c1)c1ccc(C(N)=O)cc1F` [Example 211, (E)-3-(4-((E)-2-(4-Carbamoyl-2-fluorophenyl)-1-(1H-indazol-5-yl)but-1-en-1-yl)phenyl)acrylic acid], in the experiment on MCF-7 cells, the “MCF7 Viability Assay Max Response” value is “+ (+ = a single % value < 40%)” and the IC50 was above 100 nM. On ER-α in MCF-7 cells, the Emax was at least 40% and the DC50 is above 100 nM.
As to `O=C(O)/C=C/c1ccc(/C(=C(\c2ccc(F)cc2Cl)C2CCC2)c2coc3c(O)cccc23)cc1` [Example 212, (E)-3-(4-((E)-2-(2-Chloro-4-fluorophenyl)-2-cyclobutyl-1-(7-hydroxybenzofuran-3-yl)vinyl)phenyl)acrylic acid], in the experiment on MCF-7 cells, the “MCF7 Viability Assay Max Response” value is listed as “++ (++ = a single % value ≧ 40%)” and the IC50 was at most 100 nM. In addition, at ER-α in MCF-7 cells, the Emax is at least 40% and the DC50 was at most 100 nM.
With `O=C(O)/C=C/c1ccc(/C(=C(\c2ccncc2Cl)C2CCC2)c2coc3c(O)cccc23)cc1` [Example 213, (E)-3-(4-((E)-2-(3-Chloropyridin-4-yl)-2-cyclobutyl-1-(7-hydroxybenzofuran-3-yl)vinyl)phenyl)acrylic acid], in the experiment with MCF-7 cells, the “MCF7 Viability Assay Max Response” value is listed as “++ (++ = a single % value ≧ 40%)” and the IC50 was at most 100 nM. For the same compound, at ER-α in MCF-7 cells, the Emax is at least 40% and the DC50 was at most 100 nM.
Turning to `O=C(O)/C=C/c1ccc(/C(=C(\c2ccnc(O)c2)C2CCC2)c2ccc3[nH]nc(F)c3c2)cc1` [Example 214, (E)-3-(4-((E)-2-Cyclobutyl-1-(3-fluoro-1H-indazol-5-yl)-2-(2-hydroxypyridin-4-yl)vinyl)phenyl)acrylic acid], in the experiment with MCF-7 cells, the “MCF7 Viability Assay Max Response” value was “+ (+ = a single % value < 40%)” and the IC50 was above 100 nM. Moreover, at ER-α in MCF-7 cells, the Emax is at least 40% and the DC50 is above 100 nM.
In the case of `Fc1n[nH]c2ccc(/C(=C(/c3ccccc3)C3CCC3)c3ccc(/C=C/c4ccccn4)cc3)cc12` [Example 215], in the experiment with MCF-7 cells, the “MCF7 Viability Assay Max Response” value is listed as “++ (++ = a single % value ≧ 40%)” and the IC50 is at most 100 nM. At ER-α in MCF-7 cells, the Emax is at least 40% and the DC50 was at most 100 nM.
As to `COc1ccc(/C(=C(\c2ccc(/C=C/C(=O)O)cc2)c2ccc3[nH]ncc3c2)C2CCC2)c(Cl)c1` [Example 216, (E)-3-(4-((E)-2-(2-Chloro-4-methoxyphenyl)-2-cyclobutyl-1-(1H-indazol-5-yl)vinyl)phenyl)acrylic acid], in the experiment on MCF-7 cells, the “MCF7 Viability Assay Max Response” value is on record as “++ (++ = a single % value ≧ 40%)” and the IC50 is at most 100 nM. Also, on ER-α in MCF-7 cells, the Emax was at least 40% and the DC50 is at most 100 nM.
Consider `Cc1cc(CO)ccc1/C(=C(\c1ccc(/C=C/C(=O)O)cc1)c1ccc2[nH]nc(F)c2c1)C1CCC1` [Example 217, (E)-3-(4-((E)-2-Cyclobutyl-1-(3-fluoro-1H-indazol-5-yl)-2-(4-(hydroxymethyl)-2-methylphenyl)vinyl)phenyl)acrylic acid], for which, in the experiment with MCF-7 cells, the “MCF7 Viability Assay Max Response” value is “++ (++ = a single % value ≧ 40%)” and the IC50 is at most 100 nM. Moreover, at ER-α in MCF-7 cells, the Emax was at least 40% and the DC50 was at most 100 nM.
Take `N#Cc1ccc(/C(=C(\c2ccc(/C=C/C(=O)O)cc2)c2ccc3scnc3c2)C2CCC2)c(Cl)c1` [Example 218, (E)-3-(4-((E)-1-(Benzo[d]thiazol-5-yl)-2-(2-chloro-4-cyanophenyl)-2-cyclobutylvinyl)phenyl)acrylic acid]: in the experiment with MCF-7 cells, the “MCF7 Viability Assay Max Response” value is on record as “++ (++ = a single % value ≧ 40%)” and the IC50 is at most 100 nM. Further, on ER-α in MCF-7 cells, the Emax was at least 40% and the DC50 was at most 100 nM.
For the compound `N#Cc1cc(Cl)ccc1/C(=C(\c1ccc(/C=C/C(=O)O)cc1)c1ccc2scnc2c1)C1CCC1` [Example 219, (E)-3-(4-((E)-1-(Benzo[d]thiazol-5-yl)-2-(4-chloro-2-cyanophenyl)-2-cyclobutylvinyl)phenyl)acrylic acid], in the experiment with MCF-7 cells, the “MCF7 Viability Assay Max Response” value is on record as “++ (++ = a single % value ≧ 40%)” and the half-inhibitory concentration (IC50) is at most 100 nM. Also, on ER-α in MCF-7 cells, the Emax is at least 40% and the DC50 was at most 100 nM.
Consider `O=C(O)/C=C/c1ccc(/C(=C(\c2ccc(Cl)cc2Cl)C2CCC2)c2ccc3nccn3c2)cc1` [Example 220, (E)-3-(4-((E)-2-Cyclobutyl-2-(2,4-dichlorophenyl)-1-(imidazo[1,2-a]pyridin-6-yl)vinyl)phenyl)acrylic acid], for which, in the experiment with MCF-7 cells, the “MCF7 Viability Assay Max Response” value is reported as “++ (++ = a single % value ≧ 40%)” and the IC50 was at most 100 nM. At ER-α in MCF-7 cells, the Emax is at least 40% and the DC50 was at most 100 nM.
Consider `O=C(O)/C=C/c1ccc(/C(=C(\c2ccc(F)cc2C(F)(F)F)C2CCC2)c2ccc3nccn3c2)cc1` [Example 221, (E)-3-(4-((E)-2-Cyclobutyl-2-(4-fluoro-2-(trifluoromethyl)phenyl)-1-(imidazo[1,2-a]pyridin-6-yl)vinyl)phenyl)acrylic acid], for which, in the experiment with MCF-7 cells, the “MCF7 Viability Assay Max Response” value is “++ (++ = a single % value ≧ 40%)” and the half-inhibitory concentration (IC50) was at most 100 nM. For the same compound, at ER-α in MCF-7 cells, the Emax is at least 40% and the DC50 is at most 100 nM.
In the case of `N#Cc1c(/C(=C(/c2ccc(F)cc2Cl)C2CC2)c2ccc(/C=C/C(=O)O)cc2)ccc2[nH]nc(F)c12` [Example 222, (E)-3-(4-((E)-2-(2-Chloro-4-fluorophenyl)-1-(4-cyano-3-fluoro-1H-indazol-5-yl)-2-cyclopropylvinyl)phenyl)acrylic acid], in the experiment on MCF-7 cells, the “MCF7 Viability Assay Max Response” value is reported as “++ (++ = a single % value ≧ 40%)” and the IC50 is at most 100 nM. Moreover, on ER-α in MCF-7 cells, the Emax was at least 40% and the DC50 was at most 100 nM.
As for `O=C(O)/C=C/c1ccc(/C(=C(\c2ccc(Cl)cc2C(F)(F)F)C2CCC2)c2ccc3nccn3c2)cc1` [Example 223, (E)-3-(4-((E)-2-(4-Chloro-2-(trifluoromethyl)phenyl)-2-cyclobutyl-1-(imidazo[1,2-a]pyridin-6-yl)vinyl)phenyl)acrylic acid], in the experiment with MCF-7 cells, the “MCF7 Viability Assay Max Response” value is reported as “++ (++ = a single % value ≧ 40%)” and the IC50 was at most 100 nM. Also, on ER-α in MCF-7 cells, the Emax is at least 40% and the DC50 was at most 100 nM.
As for `N#Cc1c(/C(=C(/c2ccc(F)cc2Cl)C2CCC2)c2ccc(/C=C/C(=O)O)cc2)ccc2nccn12` [Example 224, (E)-3-(4-((E)-2-(2-Chloro-4-fluorophenyl)-1-(5-cyanoimidazo[1,2-a]pyridin-6-yl)-2-cyclobutylvinyl)phenyl)acrylic acid], in the experiment with MCF-7 cells, the “MCF7 Viability Assay Max Response” value is listed as “++ (++ = a single % value ≧ 40%)” and the IC50 is at most 100 nM. Besides, at ER-α in MCF-7 cells, the Emax is at least 40% and the DC50 is at most 100 nM.

The values are drawn from patent US9499538B2, “Estrogen receptor modulators and uses thereof” (Seragon Pharmaceuticals, Inc., priority 2012, dated 2016).
